From US3966747A, “9-Hydroxy-6,7-benzomorphans” (Bristol-Myers Company, priority 1974, dated 1976)
Like-named read-outs stand apart in the source and are kept apart here.

Columns and labels:
[1] = tested on: phenylquinone induced writhing; assay: Agonist activity: mouse phenylquinone writhing; assay type: in vivo; settings: for ED50: Mus musculus; for subcutaneous analgesic activity: in words
Method: (§1) In vivo testing was conducted on the compounds designated herein as dl-XVIc, l-XVIc tartrate, d-XVIc tartrate, dl-XVIe, dl-XVId and dl-XVIb to determine their agonist and/or antagonist properties. The figures reported are the number of milligrams/ kilogram of body weight of compound that produced an agonist or antagonist effect in 50% of the mice and rats so tested (ED50).
^1 A 50 percent reduction in number of phenylquinone induced writhing
(Siegmund, E. A. et al., Proc. Soc. Biol. & Med. 95, 729; 1957).
(§2) ^6 All values are reported in terms of the free base even though
(§3) administered as an acid addition salt.

[2] = tested on: Straub Tail induced by oxymorphone; assay: Antagonist activity: antagonism of Straub Tail induced by oxymorphone; assay type: in vivo, mice; settings: oxymorphone 2 mg./kg. sc., as free base; for ED50: Mus musculus
Method: (§4) . The figures reported are the number of milligrams/ kilogram of body weight of compound that produced an agonist or antagonist effect in 50% of the mice and rats so tested (ED50).
^2 Antagonism of Straub Tail induced by oxymorphone (2 mg./kg. sc.) i
as §2, §3

[3] = tested on: analgesic effect induced by morphine; assay: animal or person; assay type: in vivo, Rat; settings: for ED50: Rattus norvegicus
Description: as §4
mg./kg. sc.) as measured by the rat tail flick procedure (Harris, L. S.
and Pierson, A. K., J. Pharmacol. & Expt. Therap., 143, 141; 1964).
as §2, §3

[4] = In vivo testing for agonist and/or antagonist properties (overall statement); design: species or system mice and rats; settings: in words
Method: as §1

[5] = tested on: righting reflex loss induced by oxymorphone; assay: animal or person; assay type: in vivo, rats; settings: for ED50: Rattus norvegicus
[6] = SC, 50 percent reduction in number of writhings, as free base, read-out: ED50, Agonist Activity, Mouse Phenylquinone Writhing, SC
[7] = PO, read-out: ED50, Antagonist Activity, Oxymorphone Straub Tail, PO
[8] = SC, read-out: ED50, Antagonist Activity, Oxymorphone Straub Tail, SC
[9] = SC, morphine 15 mg./kg. sc., as free base, read-out: ED50, Antagonist Activity, Morphine Antagonism Rat Tail Flick, SC
[10] = SC, oxymorphone 1.5 mg./kg. sc., as free base, read-out: ED50, Antagonist Activity, Oxymorphone Narcosis, SC
[11] = PO, morphine 15 mg./kg. sc., as free base, read-out: ED50, Antagonist Activity, Morphine Antagonism Rat Tail Flick, PO
[12] = PO, 50 percent reduction in number of writhings, as free base, read-out: ED50, Agonist Activity, Mouse Phenylquinone Writhing, PO
[13] = PO, oxymorphone 1.5 mg./kg. sc., as free base, read-out: ED50, Antagonist Activity, Oxymorphone Narcosis, PO
[14] = SC, 50 percent reduction in number of writhings, as free base

C=CC[C@]12CCN(CC3CC3)[C@H](Cc3ccc(O)cc31)[C@@]2(C)O (relative stereo) [dl-XVIb, 2',9β-Dihydroxy-2-cyclopropylmethyl-5-allyl-9α-methyl-6,7-benzomorphan]
ED50 [1, 6]: > 40 mg/kg | subcutaneous analgesic activity [1]: weak subcutaneous analgesic activity | ED50 [2, 7]: 16 mg/kg | ED50 [2, 8]: 0.12 mg/kg | ED50 [3, 9]: 0.018 mg/kg | parenteral antagonist activity [4]: relatively potent parenteral antagonists

C=CC[C@]12CCN(CC3CCC3)[C@H](Cc3ccc(O)cc31)[C@@]2(C)O (relative stereo) [dl-XVIc, 2',9β-Dihydroxy-2-cyclobutylmethyl-5-allyl-9α-methyl-6,7-benzomorphan]
ED50 [1, 6]: 0.23 mg/kg | ED50 [2, 8]: 0.72 mg/kg | ED50 [5, 10]: 0.3 mg/kg | ED50 [3, 9]: 0.42 mg/kg | agonist and antagonist activity upon parenteral administration [4]: potent agonist and antagonist activity

C#CCN1CC[C@@]2(CC=C)c3cc(O)ccc3C[C@@H]1[C@@]2(C)O (relative stereo) [dl-XVId, 2',9β-Dihydroxy-2-propargyl-5-allyl-9α-methyl-6,7-benzomorphan]
ED50 [1, 6]: > 40 mg/kg | subcutaneous analgesic activity [1]: weak subcutaneous analgesic activity | ED50 [2, 8]: 1.41 mg/kg | ED50 [3, 9]: 0.14 mg/kg | parenteral antagonist activity [4]: relatively potent parenteral antagonists

CCC[C@]12CCN(CC3CC3)[C@H](Cc3ccc(O)cc31)[C@@]2(C)O (relative stereo) [dl-XVIe, 2',9β-Dihydroxy-2-cyclopropylmethyl-5-propyl-9α-methyl-6,7benzomorphan]
ED50 [1, 6]: > 40 mg/kg | subcutaneous analgesic activity [1]: weak subcutaneous analgesic activity | ED50 [2, 8]: 0.11 mg/kg | ED50 [5, 10]: 0.08 mg/kg | ED50 [3, 11]: 6 mg/kg | ED50 [3, 9]: 0.03 mg/kg | parenteral antagonist activity [4]: relatively potent parenteral antagonists

C[C@H]1[C@H]2Cc3ccc(O)cc3[C@]1(C)CCN2CC1CC1 [Cyclazocine]
ED50 [1, 12]: 4 mg/kg | ED50 [1, 6]: 0.047 mg/kg | ED50 [2, 7]: 24 mg/kg | ED50 [2, 8]: 0.81 mg/kg | ED50 [5, 13]: 2.7 mg/kg | ED50 [5, 10]: 0.12 mg/kg | ED50 [3, 11]: 3.7 mg/kg | ED50 [3, 9]: 0.04 mg/kg

C=CCN1CC[C@]23CCCC[C@H]2[C@H]1Cc1ccc(O)cc13 [Levallorphan]
ED50 [2, 7]: 46 mg/kg | ED50 [2, 8]: 0.29 mg/kg | ED50 [5, 13]: 5.4 mg/kg | ED50 [5, 10]: 0.32 mg/kg | ED50 [3, 11]: 12.6 mg/kg | ED50 [3, 9]: 0.086 mg/kg

C=CCN1CC[C@]23c4c5ccc(O)c4O[C@H]2[C@@H](O)C=C[C@H]3[C@H]1C5 [Nalorphine]
ED50 [1, 12]: 15 mg/kg | ED50 [1, 6]: 0.77 mg/kg | ED50 [2, 7]: > 64 mg/kg | ED50 [5, 13]: 5.4 mg/kg | ED50 [5, 10]: 0.58 mg/kg | ED50 [3, 11]: 22.1 mg/kg | ED50 [3, 9]: 0.38 mg/kg

C=CCN1CC[C@]23c4c5ccc(O)c4O[C@H]2C(=O)CC[C@@]3(O)[C@H]1C5 [Naloxone]
ED50 [1, 6]: 40 mg/kg | ED50 [2, 7]: 13.1 mg/kg | ED50 [2, 8]: 0.17 mg/kg | ED50 ([5]; po, read-out: ED50, Antagonist Activity, Oxymorphone Narcosis, PO): 0.95 mg/kg | ED50 ([5]; sc, read-out: ED50, Antagonist Activity, Oxymorphone Narcosis, SC): 0.02 mg/kg | ED50 ([3]; po, read-out: ED50, Antagonist Activity, Morphine Antagonism Rat Tail Flick, PO): 2.7 mg/kg | ED50 ([3]; sc, read-out: ED50, Antagonist Activity, Morphine Antagonism Rat Tail Flick, SC): 0.01 mg/kg

CC(C)=CCN1CCC2(C)c3cc(O)ccc3CC1C2C (stereo not drawn) [Pentazocine]
ED50 [1, 12]: 36 mg/kg | ED50 [1, 6]: 4.9 mg/kg | ED50 [2, 7]: 187 mg/kg | ED50 [2, 8]: 12 mg/kg | ED50 [5, 13]: 90 mg/kg | ED50 [3, 11]: 82.2 mg/kg

C=CCC12CCN(CC3CCC3)C(Cc3ccc(O)cc31)C2(C)O.O=C(O)C(O)C(O)C(=O)O (stereo not drawn) [d-XVIc, d-2',9β-Dihydroxy-9α-methyl-5-allyl-2-cyclobutylmethyl-6,7-benzomorphan tartrate]
ED50, Agonist Activity, Mouse Phenylquinone Writhing, SC [1, 14]: > 40 mg/kg | ED50, Antagonist Activity, Oxymorphone Straub Tail, SC ([2]; SC): ~ 40 mg./kg.

l-2', 9β-Dihydroxy-9α-methyl-5-propyl-2-cyclobutyl-6,7 -benzomorphan HCl [l-XVIr]
ED50, Agonist Activity, Mouse Phenylquinone Writhing, SC [1, 14]: 0.18 mg/kg | ED50, Antagonist Activity, Oxymorphone Straub Tail, SC ([2]; SC): 1.17 mg/kg | ED50, Antagonist Activity, Morphine Antagonism Rat Tail Flick, SC ([3]; SC, morphine 15 mg./kg. sc., as free base): 0.10 mg/kg

l- 2',9β-Dihydroxy-9α-methyl-5-allyl-2-cyclobutyl-6,7 -benzomorphan tartrate [l-XVIc]
ED50, Agonist Activity, Mouse Phenylquinone Writhing, PO ([1]; PO, 50 percent reduction in number of writhings, as free base): 8 mg/kg | ED50, Agonist Activity, Mouse Phenylquinone Writhing, SC [1, 14]: 0.055 mg/kg | ED50, Antagonist Activity, Oxymorphone Straub Tail, SC ([2]; SC): 0.43 mg/kg | ED50, Antagonist Activity, Oxymorphone Narcosis, SC ([5]; rat, in vivo, sc): 0.05 mg/kg | ED50, Antagonist Activity, Morphine Antagonism Rat Tail Flick, PO ([3]; rat, in vivo, po): 14.1 mg/kg | ED50, Antagonist Activity, Morphine Antagonism Rat Tail Flick, SC ([3]; rat, in vivo, sc): 0.08 mg/kg | agonist and antagonist activity upon parenteral administration [4]: potent agonist and antagonist activity
